Source: patent US5684013A, “Tricyclic compounds useful for inhibition of g-protein function and for treatment of proliferative diseases” (Schering Corporation, priority 1995, dated 1997)
Read-outs that look alike come from different tables or passages of the source.

Legend:
[1] = target: T1, farnesyl protein transferase (FPT) (Rattus norvegicus, UniProt Q02293+Q04631); assay: In vitro enzyme assay: inhibition of farnesyl protein transferase (FPT), Ras-CVLS farnesylation; assay type: biochemical
T1 construct: were partially purified from rat brain by ammonium sulfate fractionation; from tissue; host or cells: rat brain
Source text: (§1) 1. In vitro enzyme assays: Inhibition of farnesyl protein transferase and geranylgeranyl protein transferase.
Both farnesyl protein transferase (FPT) and geranylgeranyl protein transferase (GGPT) I were partially purified from rat brain by ammonium sulfate fractionation followed by Q-Sepharose (Pharmacia, Inc.) anion exchange chromatography essentially as described by Yokoyama et al (Yokoyama, K., et al., (1991), A protein geranylgeranyltransferase from bovine brain: Implications for protein prenylation specificity, Proc. Natl. Acad. Sci USA 88: 5302-5306, the disclosure of which is incorporated herein by reference thereto). Human farnesyl protein transferase was also expressed in E. coli, using cDNA clones encoding both the a and b subunits. The methods used were similar to those published (Omer, C. et al., (1993), Characterization of recombinant human farnesyl protein transferase: Cloning, expression, farnesyl diphosphate binding, and functional homology with yeast prenyl-protein transferases, Biochemistry 32:5167-5176). Human farnesyl protein transferase was partially-purified from the soluble protein fraction of E. coli as described above. the tricyclic farnesyl protein transferase inhibitors disclosed herein inhibited both human and rat enzyme with similar potencies. Two forms of val^12 -Ha-Ras protein were prepared as substrates for these enzymes, differing in their carboxy terminal sequence. One form terminated in cysteine-valine-leucine-serine (Ras-CVLS) the other in cystein-valine-leucine-leucine (Ras-CVLL). Ras-CVLS is a substrate for the farnesyl protein transferase while Ras-CVLL is a substrate for geranylgeranyl protein transferase I. The cDNAs encoding these proteins were constructed so that the proteins contain an amino-terminal extension of 6 histidine residues. Both proteins were expressed in Escherichia coli and purified using metal chelate affinity chromatography. The radiolabelled isoprenyl pyrophosphate substrates, [^3 H]farnesyl pyrophosphate and [^3 H]geranylgeranyl pyrophosphate, were purchased from DuPont/New England Nuclear.
Several methods for measuring farnesyl protein transferase activity have been described (Reiss et al 1990, Cell 62: 81; Schaber et al 1990, J. Biol. Chem. 265: 14701; Manne et al 1990, PNAS 87: 7541; and Barbacid & Manne 1993, U.S. Pat. No. 5,185,248). The activity was assayed by measuring the transfer of [^3 H]farnesyl from [^3 H]farnesyl pyrophosphate to Ras-CVLS using conditions similar to those described by Reiss et al. 1990 (Cell 62: 81) The reaction mixture contained 40 mM Hepes, pH 7.5; 20 mM magnesium chloride; 5 mM dithiothreitol; 0.25 μM [^3 H]farnesyl pyrophosphate; […] Q-Sepharose-purified farnesyl protein transferase; the indicated concentration of tricyclic compound or dimethylsulfoxide (DMSO) vehicle control (5% DMSO final); and […] Ras-CVLS in a total volume of […]. The reaction was allowed to proceed for 30 minutes at room temperature and then stopped with 0.5 ml of 4% sodium dodecyl sulfate (SDS) followed by 0.5 ml of cold 30% trichloracetic acid (TCA). Samples were allowed to sit on ice for 45 minutes and precipitated Ras protein was then collected on GF/C filter paper mats using a Brandel cell harvester. Filter mats were washed once with 6% TCA, 2% SDS and radioactivity was measured in a Wallac 1204 Betaplate BS liquid scintillation counter. Percent inhibition was calculated relative to the DMSO vehicle control.

[2] = test system: Ras-CVLS processing in COS monkey kidney cells; assay: Cell-Based Assay: Ras-CVLS processing in transfected COS monkey kidney cells; conditions: Primates, read-out: COS IC50 (inhibition of Ras-CVLS processing)
Source text: 2. Cell-Based Assay: Transient expression of val^12 -Ha-Ras-CVLS and val^12 -Ha-Ras-CVLL in COS monkey kidney cells: Effect of farnesyl protein transferase inhibitors on Ras processing and on disordered cell growth induced by transforming Ras.
COS monkey kidney cells were transfected by electroporation with the plasmid pSV-SPORT (Gibco/BRL) containing a cDNA insert encoding either Ras-CVLS or Ras-CVLL, leading to transient overexpression of a Ras substrate for either farnesyl protein transferase or geranylgeranyl protein transferase I, respectively (see above). […]
Membranes were blocked by incubation overnight at 4° C. in PBS containing 2.5% dried milk and 0.5% Tween-20 and then incubated with a Ras-specific monoclonal antibody, Y13-259 (Furth, M. E., et al., (1982), Monoclonal antibodies to the p21 products of the transforming gene of Harvey murine sarcome virus and of the cellular ras gene family, J. Virol. 43: 294-304), in PBS containing 1% fetal calf serum for one hour at room temperature. […] The presence of processed and unprocessed Ras-CVLS or Ras-CVLL was detected using a colorimetric peroxidase reagent (4-chloro-1-naphthol) as described by the manufacturer (Bio-Rad).

[3] = target: T2, geranylgeranyl protein transferase (GGPT) I (Rattus norvegicus, UniProt P53610+Q04631); assay: In vitro enzyme assay: inhibition of geranylgeranyl protein transferase (GGPT) I, Ras-CVLL as acceptor; assay type: biochemical
T2 construct: were partially purified from rat brain by ammonium sulfate fractionation; from tissue; host or cells: rat brain
Source text: as §1
Both farnesyl protein transferase (FPT) and geranylgeranyl protein transferase (GGPT) I were partially purified from rat brain by ammonium sulfate fractionation followed by Q-Sepharose (Pharmacia, Inc.) anion exchange chromatography essentially as described by Yokoyama et al (Yokoyama, K., et al., (1991), A protein geranylgeranyltransferase from bovine brain: Implications for protein prenylation specificity, Proc. Natl. Acad. Sci USA 88: 5302-5306, the disclosure of which is incorporated herein by reference thereto). Human farnesyl protein transferase was also expressed in E. coli, using cDNA clones encoding both the a and b subunits. The methods used were similar to those published (Omer, C. et al., (1993), Characterization of recombinant human farnesyl protein transferase: Cloning, expression, farnesyl diphosphate binding, and functional homology with yeast prenyl-protein transferases, Biochemistry 32:5167-5176). Human farnesyl protein transferase was partially-purified from the soluble protein fraction of E. coli as described above. the tricyclic farnesyl protein transferase inhibitors disclosed herein inhibited both human and rat enzyme with similar potencies. […]

[4] = test system: T24-BAG4 human bladder carcinoma cells; assay: Cell Mat Assay: inhibition of tumor cell growth; assay type: cell-based; conditions: 336 h, tIC50, 14 d colony formation
Experimental: (§2) Normal human HEPM fibroblasts were planted in 3.5 cm dishes at a density of 5×10^4 cells/dish in 2 ml growth medium, and incubated for 3-5 d to achieve confluence. Medium was aspirated from each dish and the indicator tumor cells, T24-BAG4 human bladder carcinoma cells expressing an activated H-ras gene, were planted on top of the fibroblast monolayer at a density of 2×10^3 cells/dish in 2 ml growth medium, and allowed to attach overnight. Compound-induced colony inhibition was assayed by addition of serial dilutions of compound directly to the growth medium 24 h after tumor cell planting, and incubating cells for an additional 14 d to allow colony formation. Assays were terminated by rinsing monolayers twice with phosphate-buffered saline (PBS), fixing the monolayers with a 1% glutaraldehyde solution in PBS, then visualizing tumor cells by staining with X-Gal (Price, J., et al., Lineage analysis in the vertebrate nervous system by retrovirus-mediated gene transfer, Proc. Natl. Acad. Sci. 84, 156-160(1987)). In the colony inhibition assay, compounds were evaluated on the basis of two IC50 values: the concentration of drug required to prevent the increase in tumor cell number by 50% (tIC50) and the concentration of drug required to reduce the density of cells comprising the cell mat by 50% (mIC50). Both IC50 values were obtained by determining the density of tumor cells and mat cells by visual inspection and enumeration of cells per colony and the number of colonies under the microscope. The therapeutic index of the compound was quantitatively expressed as the ratio of mIC50 /tIC50, with values greater than one indicative of tumor target specificity.

[5] = test system: Normal human HEPM fibroblasts; assay: Cell Mat Assay: inhibition of normal cell growth (cell mat); assay type: cell-based; conditions: Fibroblast, mIC50, normal cell monolayer
Experimental: as §2

[6] = Table 3, comparison of FPT and GGPT inhibition, read-out: ENZYME INHIBITION FPT IC50

IC50 ([1]; Table 2, read-out: FPT IC50) | IC50 [1, 6] | IC50 ([3]; Table 3, unit printed in the cell) | IC50 [4] | IC50 ([3]; Table 3) | SMILES | IC50 [2] | IC50 [5]
590 nM | – | – | – | – | O=S(=O)(c1ccccc1)N1CC/C(=C2\c3ccc(Cl)cc3CCc3cccnc32)C1 [Compound E-2] | > 5000 nM | –
710 nM | 710 nM | 7400 nM | < 3100 nM | – | O=S(=O)(c1ccccc1)N1CCC/C(=C2\c3ccc(Cl)cc3CCc3cccnc32)C1 [Compound E-2E] | 2500 nM | > 50000 nM
< 440 nM | 470 nM | – | 12500 nM | < 13000 nM | O=S(=O)(c1cccs1)N1CCC/C(=C2\c3ccc(Cl)cc3CCc3cccnc32)C1 [Compound E-1G] | – | > 25000 nM
